Patent US20230116972A1, “CD38 MODULATORS AND METHODS OF USE THEREOF” (Cytokinetics, Inc., priority 2021, published 2023)

Columns and labels:
[1] = molecular target: T1, human CD38 (Homo sapiens, UniProt P28907); test: human recombinant CD38 enzyme assay (hydrolysis of NAD+); type: biochemical; details: human recombinant CD38, 0.4 nM enzyme, 62.5 μM NAD+; read-out: hCD38 BioChem IC50
T1 sequence (P28907 1-300): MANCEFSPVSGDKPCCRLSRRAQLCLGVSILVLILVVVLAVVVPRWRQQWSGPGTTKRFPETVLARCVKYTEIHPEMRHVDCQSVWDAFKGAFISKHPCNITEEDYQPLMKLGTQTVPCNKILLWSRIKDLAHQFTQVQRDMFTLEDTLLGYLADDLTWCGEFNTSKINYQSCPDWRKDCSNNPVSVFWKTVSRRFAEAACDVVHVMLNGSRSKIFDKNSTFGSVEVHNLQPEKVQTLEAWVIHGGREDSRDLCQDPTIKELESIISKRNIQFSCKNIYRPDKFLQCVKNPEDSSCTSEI
Method: (§1) Compounds described herein were assayed for their ability to inhibit the hydrolysis of NAD+ by the protein CD38. The human and mouse recombinant enzyme assays measure the inhibition of the enzyme activity by compounds using recombinant enzymes and substrates in a buffered cell-free system. The assay conditions closely mimic cellular environments. Dose responses were measured using an assay to detect the hydrolysis of NAD+. All experiments were performed in the 384-well format. […] Enzyme reactions were initiated with the addition of 10 μL of a solution containing NAD+ substrate. Subsequent detection of remaining NAD+ was determined by first converting NAD+ to NADH using alcohol dehydrogenase, then using the resulting NADH to reduce resazurine to the fluorescent product resorufin. […] Following an incubation of 60 min at ambient temperature, 10 μL of 120 mM ethanol+20 U/ml alcohol dehydrogenase+30 mM semicarbazide+0.03 mM CD38 inhibitor in 50 mM HEPES, pH 7.5, 0.2 mg/ml BSA, was added and incubated at ambient temperature for 15 min. Then 10 μl 0.32 mM NaOH was added to stop the ADH reaction (plates incubated at ambient temperature for 15 min), followed by 30 μL of 0.05 mM resazurine+1000 mU/ml Diaphorase in 200 mM Tris-HCl, pH 7.7 for 15 min at ambient temperature. The plates were read for fluorescence (Excitation/Emission=540 nm/590 nm) using an EnVision plate reader. […] Note that, in Table 4, the “Compound No” corresponds to the compound numbers in Table 1.

[2] = molecular target: T2, mouse CD38 (Mus musculus, UniProt P56528); test: mouse recombinant CD38 enzyme assay (hydrolysis of NAD+); type: biochemical; details: read-out: mCD38 BioChem IC50
T2 sequence (P56528 1-304): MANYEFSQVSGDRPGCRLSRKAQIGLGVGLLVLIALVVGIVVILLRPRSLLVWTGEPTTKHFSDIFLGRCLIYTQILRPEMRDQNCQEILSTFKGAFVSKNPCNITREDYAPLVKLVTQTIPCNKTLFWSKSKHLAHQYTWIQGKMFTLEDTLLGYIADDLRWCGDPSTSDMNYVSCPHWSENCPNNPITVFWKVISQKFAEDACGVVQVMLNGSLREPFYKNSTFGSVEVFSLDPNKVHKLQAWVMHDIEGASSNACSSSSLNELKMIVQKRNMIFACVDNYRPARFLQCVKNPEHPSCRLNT
Method: as §1

| Compound | IC50 [1] [µM] | IC50 [2] [µM] |
| --- | --- | --- |
| CO[C@H]1CC[C@H](NC(=O)c2nc(-c3cncn3C)cc(C(F)F)n2)CC1 [Compound 350, 4-(difluoromethyl)-N-((1r,4r)-4-methoxycyclohexyl)-6-(1-methyl-1H-imidazol-5-yl)pyrimidine-2-carboxamide] | 0.107 | 0.0113 |
| O=C(Nc1ccc(OC(F)F)nc1)c1nccc(-n2ccnc2)n1 [Compound 354, N-(6-(difluoromethoxy)pyridin-3-yl)-4-(1H-imidazol-1-yl)pyrimidine-2-carboxamide] | 0.0042 | 0.0169 |
| Cn1cncc1-c1nc(C(=O)NC2CCC(F)(F)CC2)cc(C2CCC2)n1 [Compound 182, 6-cyclobutyl-N-(4,4-difluorocyclohexyl)-2-(1-methyl-1H-imidazol-5-yl)pyrimidine-4-carboxamide] | 0.011 | 0.002 |
| Cn1cncc1-c1nc(C(=O)N[C@H]2CC[C@H](OC(F)(F)F)CC2)cc(C2CCC(F)(F)CC2)n1 [Compound 322, 6-(4,4-difluorocyclohexyl)-2-(1-methyl-1H-imidazol-5-yl)-N-((1r,4r)-4-(trifluoromethoxy)cyclohexyl)pyrimidine-4-carboxamide] | 0.0418 | 0.0069 |
| COCCO[C@@H]1CC[C@@H](NC(=O)c2nccc(-c3cncn3C)n2)C1 [Compound 351, N-((1R,3R)-3-(2-methoxyethoxy)cyclopentyl)-4-(1-methyl-1H-imidazol-5-yl)pyrimidine-2-carboxamide] | 0.676 | 0.267 |
| CO[C@H]1CC[C@H](NC(=O)c2cc(C3CC4(COC4)C3)nc(-c3cncn3C)n2)CC1 [Compound 327, N-((1r,4r)-4-methoxycyclohexyl)-2-(1-methyl-1H-imidazol-5-yl)-6-(2-oxaspiro[3.3]heptan-6-yl)pyrimidine-4-carboxamide] | 0.0221 | 0.0026 |
| COCCO[C@H]1C[C@H](NC(=O)c2nccc(-n3ccnc3)n2)C1 [Compound 223, 4-(1H-imidazol-1-yl)-N-((1r,3r)-3-(2-methoxyethoxy)cyclobutyl)pyrimidine-2-carboxamide] | 1.63 | 0.459 |
| Cn1cncc1-c1ccnc(C(=O)N[C@H]2C[C@](O)(c3ccccc3)C2)n1 [Compound 310, N-((1s,3s)-3-hydroxy-3-phenylcyclobutyl)-4-(1-methyl-1H-imidazol-5-yl)pyrimidine-2-carboxamide] | 0.354 | 0.105 |
| Cn1cncc1-c1ncc(F)c(C(=O)N[C@H]2CC[C@H](OC(F)(F)F)CC2)n1 [Compound 340, 5-fluoro-2-(1-methyl-1H-imidazol-5-yl)-N-((1r,4r)-4-(trifluoromethoxy)cyclohexyl)pyrimidine-4-carboxamide] | 0.0119 | 0.0063 |
| COc1ccc(NC(=O)c2cc(C3CCOCC3)nc(-c3cncn3C)n2)cn1 [Compound 355, N-(6-methoxypyridin-3-yl)-2-(1-methyl-1H-imidazol-5-yl)-6-(tetrahydro-2H-pyran-4-yl)pyrimidine-4-carboxamide] | 0.0035 | 0.0011 |
| CO[C@H]1CC[C@H](NC(=O)c2cc(C3CCC3)nc(-n3ccnc3)n2)CC1 [Compound 184, 6-cyclobutyl-2-(1H-imidazol-1-yl)-N-((1r,4r)-4-methoxycyclohexyl)pyrimidine-4-carboxamide] | 0.056 | 0.016 |
| Cn1cncc1-c1nc(C(=O)Nc2ccc(C(F)(F)F)nc2)cc(C2CC3(COC3)C2)n1 [Compound 345, 2-(1-methyl-1H-imidazol-5-yl)-6-(2-oxaspiro[3.3]heptan-6-yl)-N-(6-(trifluoromethyl)pyridin-3-yl)pyrimidine-4-carboxamide] | 0.0033 | 0.001 |
| O=C(Nc1ccc(C(F)(F)F)nc1)c1cccc(-n2cnnc2)n1 [Compound 143, 6-(4H-1,2,4-triazol-4-yl)-N-(6-(trifluoromethyl)pyridin-3-yl)picolinamide] | 2.04 | 1.97 |
| Cn1cncc1-c1ccnc(C(=O)N[C@H]2C[C@@H](c3ccnc(C(F)(F)F)c3)C2)n1 [Compound 266, 4-(1-methyl-1H-imidazol-5-yl)-N-((1s,3s)-3-(2-(trifluoromethyl)pyridin-4-yl)cyclobutyl)pyrimidine-2-carboxamide] | 0.708 | 0.327 |
| CO[C@H]1CC[C@H](NC(=O)c2nc(-c3cncn3C)ncc2C)CC1 [Compound 328, N-((1r,4r)-4-methoxycyclohexyl)-5-methyl-2-(1-methyl-1H-imidazol-5-yl)pyrimidine-4-carboxamide] | 0.0414 | 0.0115 |
| CO[C@H]1CC[C@H](NC(=O)c2cc(N3CCCC3)cc(-n3ccnc3)n2)CC1 [Compound 180, 6-(1H-imidazol-1-yl)-N-(4-methoxycyclohexyl)-4-(pyrrolidin-1-yl)picolinamide] | 0.078 | 0.008 |
| Cn1cncc1-c1ncc(Cl)c(C(=O)N[C@H]2CC[C@H](OC(F)F)CC2)n1 [Compound 323, 5-chloro-N-((1r,4r)-4-(difluoromethoxy)cyclohexyl)-2-(1-methyl-1H-imidazol-5-yl)pyrimidine-4-carboxamide] | 0.0221 | 0.0106 |
| CO[C@H]1CC[C@H](NC(=O)c2ccnc(-c3cncs3)n2)CC1 [Compound 113, N-((1r,4r)-4-methoxycyclohexyl)-2-(thiazol-5-yl)pyrimidine-4-carboxamide] | 0.569 | 0.166 |
| Cc1cnc(-c2cncn2C)nc1C(=O)Nc1ccc(C(F)(F)F)nc1 [Compound 326, 5-methyl-2-(1-methyl-1H-imidazol-5-yl)-N-(6-(trifluoromethyl)pyridin-3-yl)pyrimidine-4-carboxamide] | 0.0034 | 0.0014 |
| CO[C@H]1CC[C@H](NC(=O)c2cc(C3CC3)nc(-c3cncs3)n2)CC1 [Compound 108, 6-Cyclopropyl-N-((1r,4r)-4-methoxycyclohexyl)-2-(thiazol-5-yl)pyrimidine-4-carboxamide] | 0.711 | 0.033 |
| Cn1cncc1-c1nc(C(=O)Nc2ccc(C(C)(C)O)nc2)cc(C2CCC(F)(F)CC2)n1 [Compound 336, 6-(4,4-difluorocyclohexyl)-N-(6-(2-hydroxypropan-2-yl)pyridin-3-yl)-2-(1-methyl-1H-imidazol-5-yl)pyrimidine-4-carboxamide] | 0.0123 | 0.0013 |
| O=C(Nc1ccc(C(F)(F)F)nc1)c1cc(C2CC2)nc(-c2cncs2)n1 [Compound 109, 6-cyclopropyl-2-(thiazol-5-yl)-N-(6-(trifluoromethyl)pyridin-3-yl)pyrimidine-4-carboxamide] | 0.312 | 0.066 |
| CO[C@H]1CC[C@H](NC(=O)c2cc(O)nc(-n3ccnc3)n2)CC1 [Compound 126, 6-hydroxy-2-(1H-imidazol-1-yl)-N-((1r,4r)-4-methoxycyclohexyl)pyrimidine-4-carboxamide] | 0.841 | 0.084 |
| Cc1ccc(NC(=O)c2cccc(-c3cncs3)n2)cn1 [Compound 51, N-(6-methylpyridin-3-yl)-6-(thiazol-5-yl)picolinamide] | 1.2 | 0.487 |
| CO[C@H]1C[C@H](NC(=O)c2nccc(-c3cncn3C)n2)C1 [Compound 297, N-((1r,3r)-3-methoxycyclobutyl)-4-(1-methyl-1H-imidazol-5-yl)pyrimidine-2-carboxamide] | 0.414 | 0.0908 |
| C[C@H]1CC[C@H](NC(=O)c2ccnc(-c3cncs3)n2)CC1 [Compound 112, N-((1r,4r)-4-methylcyclohexyl)-2-(thiazol-5-yl)pyrimidine-4-carboxamide] | 0.639 | 0.158 |
| Cn1cncc1-c1nc(C(=O)N[C@H]2CC[C@H](OCC(F)(F)F)CC2)cc(C2CCOCC2)n1 [Compound 337, 2-(1-methyl-1H-imidazol-5-yl)-6-(tetrahydro-2H-pyran-4-yl)-N-((1r,4r)-4-(2,2,2-trifluoroethoxy)cyclohexyl)pyrimidine-4-carboxamide] | 0.0104 | 0.0019 |
| O=C(NC1CC2(COC2)C1)c1nccc(-n2ccnc2)n1 [Compound 290, 4-(1H-imidazol-1-yl)-N-(2-oxaspiro[3.3]heptan-6-yl)pyrimidine-2-carboxamide] | 1.22 | 0.191 |
